Source: patent US8435978B2, “Substituted sulfonamide compounds” (Gruenenthal GmbH, priority 2006, dated 2013)
Counter-ions that a name gives are not always drawn.

Tests used:
human B1R receptor = biological target: T1, human B1R receptor (Homo sapiens, UniProt P46663); experiment: Functional study on the bradykinin receptor 1 (B1R), FLIPR Ca2+ assay, hB1R cells; type: cell-based; details: agonist Lys-Des-Arg9-bradykinin 0.5 nM, % inhibition compared with the maximum achievable inhibition; for inhibition at 10 µM: CHO-K1, test substance 10 μM, read-out: B1R Antagonism, human [10 μM] % Inhibition
T1 construct: host or cells: CHO K1 cells (Chinese hamster ovary), stably transfected
T1 sequence (P46663 1-353): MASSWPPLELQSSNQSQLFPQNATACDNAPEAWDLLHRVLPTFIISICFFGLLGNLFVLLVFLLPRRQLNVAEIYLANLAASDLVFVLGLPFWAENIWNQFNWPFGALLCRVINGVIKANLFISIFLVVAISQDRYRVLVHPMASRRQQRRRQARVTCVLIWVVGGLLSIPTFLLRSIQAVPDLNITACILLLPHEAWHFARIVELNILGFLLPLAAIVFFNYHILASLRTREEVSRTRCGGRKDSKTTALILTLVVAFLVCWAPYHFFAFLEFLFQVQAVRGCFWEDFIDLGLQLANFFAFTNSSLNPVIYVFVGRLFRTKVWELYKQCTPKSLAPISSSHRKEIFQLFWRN
Method in brief: (§1)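 Readout: peak Fluo-4 Ca2+ fluorescence, FLIPR. Stable CHO K1 hB1R or rB1R cells; cpd 10 μM, 10 min preincubation, then agonist (hB1R: Lys-Des-Arg9-BK 0.5 nM; rB1R: Des-Arg9-BK 100 nM). Value = % inhibition relative to maximal achievable inhibition.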

B1R receptor of the rat = biological target: T2, B1R receptor of the rat (Rattus norvegicus, UniProt P97583); experiment: Functional study on the bradykinin receptor 1 (B1R), FLIPR Ca2+ assay, rB1R cells; type: cell-based; details: agonist Des-Arg9-bradykinin 100 nM, % inhibition compared with the maximum achievable inhibition; for inhibition at 10 µM: CHO-K1, test substance 10 μM, read-out: B1R Antagonism, rat [10 μM] % Inhibition
T2 construct: host or cells: CHO K1 cells (Chinese hamster ovary), stably transfected
T2 sequence (P97583 1-337): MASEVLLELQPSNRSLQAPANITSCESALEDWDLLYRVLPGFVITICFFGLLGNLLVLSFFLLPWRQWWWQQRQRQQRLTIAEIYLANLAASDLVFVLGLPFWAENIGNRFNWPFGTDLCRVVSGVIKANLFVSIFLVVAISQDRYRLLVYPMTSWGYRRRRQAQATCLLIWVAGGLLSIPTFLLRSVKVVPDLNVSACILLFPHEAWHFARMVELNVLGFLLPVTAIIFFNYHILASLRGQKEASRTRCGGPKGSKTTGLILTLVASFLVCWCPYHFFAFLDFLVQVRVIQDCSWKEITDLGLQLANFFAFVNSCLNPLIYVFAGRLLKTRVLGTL
Method in brief: as §1

Row | inhibition at 10 µM (human B1R receptor) | inhibition at 10 µM (B1R receptor of the rat) | B1R Antagonism, human [10 μM] % Inhibition (human B1R receptor; test substance 10 μM, hB1R CHO K1 cells) | B1R Antagonism, rat [10 μM] % Inhibition (B1R receptor of the rat; test substance 10 μM, rB1R CHO K1 cells) | SMILES
1 | 70.4% | 101% |  |  | O=C(COCC1CCCCN1S(=O)(=O)c1c(Cl)cccc1Cl)N(Cc1ccccc1)c1ccccn1 (stereo not drawn) [Example 486, N-benzyl-2-((1-(2,6-dichlorophenylsulfonyl)piperidin-2-yl)methoxy)-N-(pyridin-2-yl)acetamide]
2 | 87.1% | 103% |  |  | COc1cc(C)c(S(=O)(=O)N2CCCC2COCC(=O)N2CCN(c3ccc(Cl)c(Cl)c3)CC2)c(C)c1 (stereo not drawn) [Example 348, 1-(4-(3,4-dichlorophenyl)piperazin-1-yl)-2-((1-(4-methoxy-2,6-dimethylphenylsulfonyl)pyrrolidin-2-yl)methoxy)ethanone]
3 | 66% | 101% |  |  | O=C(COCC1CCCCN1S(=O)(=O)c1c(Cl)cccc1Cl)N1CCCC1c1cccnc1 (stereo not drawn) [Example 497, 2-((1-(2,6-dichlorophenylsulfonyl)piperidin-2-yl)methoxy)-1-(2-(pyridin-3-yl)pyrrolidin-1-yl)ethanone]
4 | 50.2% | 91% |  |  | O=C(COCC1CCCCN1S(=O)(=O)c1c(Cl)cc(Cl)cc1Cl)NCC(c1cccnc1)N1CCOCC1 (stereo not drawn) [Example 256, N-(2-morpholino-2-(pyridin-3-yl)ethyl)-2-((1-(2,4,6-trichlorophenylsulfonyl)piperidin-2-yl)methoxy)acetamide]
5 |  |  | 59.22% | 92.36% | COc1cc(C)c(S(=O)(=O)N2CCCCC2COCC(=O)NCC(c2ccc(C(F)(F)F)cc2)N2CCOCC2)c(C)c1 (stereo not drawn) [Example 249, 2-((1-(4-methoxy-2,6-dimethylphenylsulfonyl)piperidin-2-yl)methoxy)-N-(2-morpholin-2-(4-(trifluoromethyl)phenyl)ethyl)acetamide]
6 | 101% | 99.1% |  |  | COc1cc(C)c(S(=O)(=O)N2CCCC2COCC(=O)N2CCN(c3ccccc3)CC2)c(C)c1 (stereo not drawn) [Example 461, 2-((1-(4-methoxy-2,6-dimethylphenylsulfonyl)pyrrolidin-2-yl)methoxy)-1-(4-phenylpiperazin-1-yl)ethanone]
7 | 102% | 101% |  |  | COc1ccc(N2CCN(C(=O)COCC3CCCN3S(=O)(=O)c3c(Cl)cccc3Cl)CC2)cc1 (stereo not drawn) [Example 325, 2-((1-(2,6-dichlorophenylsulfonyl)pyrrolidin-2-yl)methoxy)-1-(4-(4-methoxyphenyl)piperazin-1-yl)ethanone]
8 | 93.5% | 103% |  |  | CCc1ccc(CC2CCCN2C(=O)COCC2CCCN2S(=O)(=O)c2c(C)cc(OC)cc2C)nc1 (stereo not drawn) [Example 490, 1-(2-((5-ethylpyridin-2-yl)methyl)pyrrolidin-1-yl)-2-((1-(4-methoxy-2,6-dimethylphenylsulfonyl)pyrrolidin-2-yl)methoxy)ethanone]
9 | 85.2% | 99% |  |  | COc1cc(C)c(S(=O)(=O)N2CCCCC2COCC(=O)N2CCN(c3ccc(C(F)(F)F)cn3)CC2)c(C)c1 (stereo not drawn) [Example 514, 2-((1-(4-methoxy-2,6-dimethylphenylsulfonyl)piperidin-2-yl)methoxy)-1-(4-(5-(trifluoromethyl)pyridin-2-yl)piperazin-1-yl)ethanone]
10 | 62.5% | 102% |  |  | O=C(COCC1CCCN1S(=O)(=O)c1c(Cl)cccc1Cl)N1CCN(c2cccc(Cl)c2)CC1 (stereo not drawn) [Example 354, 1-(4-(3-chlorophenyl)piperazin-1-yl)-2-((1-(2,6-dichlorophenylsulfonyl)pyrrolidin-2-yl)methoxy)ethanone]

Second part, the compound before the results:

Row | SMILES | inhibition at 10 µM (human B1R receptor) | inhibition at 10 µM (B1R receptor of the rat) | B1R Antagonism, human [10 μM] % Inhibition (human B1R receptor; test substance 10 μM, hB1R CHO K1 cells) | B1R Antagonism, rat [10 μM] % Inhibition (B1R receptor of the rat; test substance 10 μM, rB1R CHO K1 cells)
11 | CN1CCC(N2CCN(C(=O)COCC3CCCCN3S(=O)(=O)c3ccc4ccccc4c3)CC2)CC1 (stereo not drawn) [Example 111, 1-(4-(1-methylpiperidin-4-yl)piperazin-1-yl)-2-((1-(naphthalen-2-ylsulfonyl)piperidin-2-yl)methoxy)ethanone] | 91.9% | 101% |  | 
12 | COCCN1CCN(C(=O)COCC2Cc3ccccc3CN2S(=O)(=O)c2c(C)cc(C)cc2C)CC1 (stereo not drawn) [Example 246, 2-((2-(mesitylsulfonyl)-1,2,3,4-tetrahydroisoquinolin-3-yl)methoxy)-1-(4-(2-methoxyethyl)piperazin-1-yl)ethanone] | 56.4% | 72.1% |  | 
13 | CN1CCC(N2CCN(C(=O)COCC3CCCCN3S(=O)(=O)c3c(Cl)cc(Cl)cc3Cl)CC2)CC1 (stereo not drawn) [Example 118, 1-(4-(1-methylpiperidin-4-yl)piperazin-1-yl)-2-((1-(2,4,6-trichlorophenylsulfonyl)piperidin-2-yl)methoxy)ethanone] | 104% | 102% |  | 
14 | CN1CCC(N2CCN(C(=O)COCC3CCCCN3S(=O)(=O)c3ccccc3Cl)CC2)CC1 (stereo not drawn) [Example 139, 2-((1-(2-chlorophenylsulfonyl)piperidin-2-yl)methoxy)-1-(4-(1-methylpiperidin-4-yl)piperazin-1-yl)ethanone dihydrochloride] | 99.9% | 98.8% |  | 
15 | Cc1cc(C)c(S(=O)(=O)N2CCCCC2COCC(=O)N2CCN(C3CCN(C)CC3)CC2)c(C)c1 (stereo not drawn) [Example 107, 2-((1-(mesitylsulfonyl)piperidin-2-yl)methoxy)-1-(4-(1-methylpiperidin-4-yl)piperazin-1-yl)ethanone] | 102% | 102% |  | 
16 | COc1cc(C)c(S(=O)(=O)N2CCCCC2COCC(=O)N2CCC(CCN3CCCC3)CC2)c(C)c1 (stereo not drawn) [Example 94, 2-((1-(4-methoxy-2,6-dimethylphenylsulfonyl)piperidin-2-yl)methoxy)-1-(4-(2-(pyrrolidin-1-yl)ethyl)piperidin-1-yl)ethanone hydrochloride] | 105% | 103% |  | 
17 | O=C(COCC1Cc2ccccc2CN1S(=O)(=O)c1ccc(Cl)cc1Cl)N1CCC(N2CCCCC2)CC1 (stereo not drawn) [Example 9, 1-(1,4′-bipiperidin-1′-yl)-2-((2-(2,4-dichlorophenylsulfonyl)-1,2,3,4-tetrahydro-isoquinolin-3-yl)methoxy)ethanone] | 102% | 85.3% |  | 
18 | COc1cc(C)c(S(=O)(=O)N2CCCCC2COCC(=O)NCc2ccc(CN3CCCCC3)cc2)c(C)c1 (stereo not drawn) [Example 2, 2-[1-(4-methoxy-2,6-dimethyl-phenylsulfonyl)-piperidin-2-ylmethoxy]-N-(4-piperidin-1-ylmethyl-benzyl)-acetamide] | 104% | 87.4% |  | 
19 | O=C(COC[C@@H]1Cc2ccccc2CN1S(=O)(=O)c1ccc(Cl)cc1Cl)N1CCC(CCN2CCCC2)CC1 [Example 183, (S)-2-((2-(2,4-dichlorophenylsulfonyl)-1,2,3,4-tetrahydroisoquinolin-3-yl)methoxy)-1-(4-(2-(pyrrolidin-1-yl)ethyl)piperidin-1-yl)ethanone] | 100% | 96.9% |  | 
20 | CCOCCN1CCN(C(=O)COCC2Cc3ccccc3CN2S(=O)(=O)c2c(C)cc(C)cc2C)CC1 (stereo not drawn) [Example 245, 1-(4-(2-ethoxyethyl)piperazin-1-yl)-2-((2-(mesitylsulfonyl)-1,2,3,4-tetrahydroisoquinolin-3-yl)methoxy)ethanone] | 69.9% | 80.5% |  | 
21 | O=C(COCC1CCCCN1S(=O)(=O)c1ccc(Cl)c(Cl)c1)N1CCN(Cc2ccc3c(c2)OCO3)CC1 (stereo not drawn) [Example 39, 1-(4-benzo[1,3]dioxol-5-ylmethyl-piperazin-1-yl)-2-[1-(3,4-dichloro-phenylsulfonyl)-piperidin-2-ylmethoxy]-ethanone] | 73.2% | 0% |  | 
